Several values for one entry are separate records, joined by “and”; a condition that tells them apart may be missing. Identical values can stand only once. Like-named read-outs stand apart in the source and are kept apart here.
Target: KAT6A (Homo sapiens (Human), UniProt Q92794)
Assay: KAT assay protocol (SAMDI mass spectrometry), KAT6A
Assay type: biochemical
Details: for inhibition at 1 µM: 1 μM compound; for IC50: 1 μM AcCoA; for Ki: 10 μM AcCoA, Morrison equation
Description: Biological Assay Section 1 KAT Assay Protocol:
A. Compound Preparation • 1. Prepare 10 mM stock solutions in 100% DMSO from solid material • 2. Serial dilute 10 mM, 1 mM or 0.1 mM compound stocks 3-fold in 100% DMSO for 11-point dose response
B. Reagent Preparation • 1. Prepare 1× assay buffer containing 10 mM Tris HCL pH 8.0, 2.5 mM NaCl, 0.5 mM EDTA, 0.005% BSG and 0.02% Tween-20 • 2. Dilute Histone peptide (CPC Scientific) and AcCoA (Sigma) together in assay buffer to 2×. • 3. Dilute KAT enzyme in assay buffer to 2×.
C. Enzyme Reaction • 1. Final reaction conditions for each KAT assay in a 20 ul assay reaction volume: • i. […] Add 0.5 ul of diluted compound to the assay plate (384-well V-bottom polypropylene plates) or 0.5 ul of DMSO for control wells. • 3. Add 10 ul of 2× Histone peptide/2× AcCoA mix to the assay plate. • 4. Add 10 ul of 2× enzyme to the assay plate. • 5. Stop the reaction after the indicated time with the addition of 2 ul of 5% formic acid • 6. Each reaction was analyzed using self-assembled monolayer desorption/ionization time-of-flight mass spectrometry (Mrksich, Milan (2008) Mass Spectrometry of Self-Assembled Monolayers: A New Tool for Molecular Surface Science ACS Nano 2008 2 (1), 7-18; SAMDI Tech, Inc. (Chicago, IL)). • 7. Area under the curve (AUC) for both substrate and product peaks was determined for KAT6A at M.W. 2723 [Substrate+H]^+ and 2765 [Product+H]^+ with a +/−1 Da tolerance, respectively. • 8. Percent conversion to product was calculated by: AUCProduct/(AUCSubstrate+AUCProduct).
D. Data Analysis • 1. IC50 values were determined by fitting the % conversion at each inhibitor concentration to the 4-parameter IC50 equation using Pfizer proprietary curve fitting software. • 2. Ki values were determined by fitting the % conversion at each inhibitor concentration to the Morrison equation for tightbinding competitive inhibitors using Pfizer proprietary curve fitting software. Materials
KAT enzymes were expressed using a baculovirus expression system and purified at Pfizer, La Jolla. Histone H3 (1-21) peptide ([…], SEQ ID NO:3) was purchased from CPC Scientific (Sunnyvale, CA). Acetyl coenzyme A was purchased from Sigma-Aldrich (St. Louis, MO). All other biochemical reagents were purchased from Sigma-Aldrich or ThermoFisher Scientific (Waltham, MA).
[…] 10 ul of 2× Histone peptide/AcCoA mix was added to a 384-well V-bottom polypropylene assay plate containing 0.5 ul of serially diluted test compound in 100% dimethyl sulfoxide (DMSO). To start the reaction, 10 ul of 2× enzyme solution was added to the assay plate. KAT assays were terminated after 30-60 minutes with the addition of 2 ul of 5% formic acid. KAT6A used histone H3 (1-21) peptide. The final enzyme concentration for KAT6A was 15 nM. Each reaction was analyzed using self-assembled monolayer desorption/ionization time-of-flight mass spectrometry (Mrksich, Milan (2008) Mass Spectrometry of Self-Assembled Monolayers: A New Tool for Molecular Surface Science ACS Nano 2008 2 (1), 7-18; SAMDI Tech, Inc. (Chicago, IL)).
Area under the curve (AUC) for both substrate and product peaks was determined for KAT6A at M.W. 2723 [Substrate+H]^+ and 2765 [Product+H]^+ with a +/−1 Da tolerance, respectively. Percent conversion to product was calculated by: AUCProduct/(AUCSubstrate+AUCProduct). IC50 values were determined by fitting the % conversion at each inhibitor concentration to the 4-parameter IC50 equation using Pfizer proprietary curve fitting software. Ki values were determined by fitting the % conversion at each inhibitor concentration to the Morrison equation for tightbinding competitive inhibitors using Pfizer proprietary curve fitting software.

[1] = read-out: KAT6A Ki at 10 μM AcCoA

Sequence of KAT6A (Q92794 whole entry): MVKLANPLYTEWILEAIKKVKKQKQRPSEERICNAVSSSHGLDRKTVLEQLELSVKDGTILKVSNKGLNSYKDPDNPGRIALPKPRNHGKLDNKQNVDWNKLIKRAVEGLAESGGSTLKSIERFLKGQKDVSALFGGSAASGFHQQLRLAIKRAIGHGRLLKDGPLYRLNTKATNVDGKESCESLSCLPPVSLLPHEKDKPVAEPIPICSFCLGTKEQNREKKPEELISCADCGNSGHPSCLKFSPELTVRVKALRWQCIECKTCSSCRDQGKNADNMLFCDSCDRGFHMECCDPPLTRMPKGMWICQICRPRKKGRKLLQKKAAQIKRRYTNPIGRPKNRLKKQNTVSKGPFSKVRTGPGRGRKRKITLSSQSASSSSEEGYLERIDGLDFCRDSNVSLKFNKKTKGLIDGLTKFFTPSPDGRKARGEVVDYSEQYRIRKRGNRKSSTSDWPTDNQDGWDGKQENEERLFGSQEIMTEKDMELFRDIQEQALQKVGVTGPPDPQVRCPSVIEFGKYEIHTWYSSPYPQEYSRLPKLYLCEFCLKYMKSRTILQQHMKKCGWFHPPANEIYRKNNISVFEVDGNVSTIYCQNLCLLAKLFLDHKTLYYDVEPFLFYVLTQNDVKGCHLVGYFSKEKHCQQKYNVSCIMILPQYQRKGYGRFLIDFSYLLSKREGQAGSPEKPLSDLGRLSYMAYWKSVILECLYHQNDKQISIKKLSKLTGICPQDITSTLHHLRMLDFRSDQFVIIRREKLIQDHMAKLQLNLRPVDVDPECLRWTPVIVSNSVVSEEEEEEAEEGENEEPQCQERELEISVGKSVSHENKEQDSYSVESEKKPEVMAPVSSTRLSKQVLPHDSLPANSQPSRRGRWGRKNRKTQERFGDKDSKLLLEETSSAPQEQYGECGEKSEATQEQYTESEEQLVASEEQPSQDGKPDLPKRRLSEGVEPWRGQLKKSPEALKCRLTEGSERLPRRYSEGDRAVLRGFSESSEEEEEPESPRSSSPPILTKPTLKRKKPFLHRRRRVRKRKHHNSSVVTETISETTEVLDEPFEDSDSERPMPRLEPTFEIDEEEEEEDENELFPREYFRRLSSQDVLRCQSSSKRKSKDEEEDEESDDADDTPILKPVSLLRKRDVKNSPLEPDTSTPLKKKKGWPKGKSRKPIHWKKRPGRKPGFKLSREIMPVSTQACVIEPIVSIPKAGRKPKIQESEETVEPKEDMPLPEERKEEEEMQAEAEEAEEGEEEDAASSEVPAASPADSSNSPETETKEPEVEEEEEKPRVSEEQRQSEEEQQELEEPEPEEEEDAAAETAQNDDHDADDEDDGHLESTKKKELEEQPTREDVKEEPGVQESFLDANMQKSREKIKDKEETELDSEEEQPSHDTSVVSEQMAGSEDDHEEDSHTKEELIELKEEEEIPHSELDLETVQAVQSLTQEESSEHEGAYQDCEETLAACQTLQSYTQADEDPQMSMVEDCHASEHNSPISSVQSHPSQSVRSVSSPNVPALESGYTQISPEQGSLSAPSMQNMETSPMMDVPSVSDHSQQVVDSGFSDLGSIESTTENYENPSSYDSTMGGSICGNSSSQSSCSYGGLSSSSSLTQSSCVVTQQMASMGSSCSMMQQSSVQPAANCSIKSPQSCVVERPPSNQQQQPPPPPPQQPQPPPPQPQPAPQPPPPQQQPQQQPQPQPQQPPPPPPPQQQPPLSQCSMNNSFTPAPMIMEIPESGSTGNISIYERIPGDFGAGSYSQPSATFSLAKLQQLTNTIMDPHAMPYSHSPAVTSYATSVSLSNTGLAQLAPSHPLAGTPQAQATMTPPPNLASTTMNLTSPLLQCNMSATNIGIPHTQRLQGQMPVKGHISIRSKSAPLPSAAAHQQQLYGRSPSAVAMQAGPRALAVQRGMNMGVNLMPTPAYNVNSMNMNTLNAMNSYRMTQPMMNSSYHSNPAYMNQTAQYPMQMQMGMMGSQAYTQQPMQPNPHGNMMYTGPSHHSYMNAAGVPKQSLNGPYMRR

| SMILES | inhibition at 1 µM | further results |
| --- | --- | --- |
| COc1cc(Cn2cccn2)cc2onc(NS(=O)(=O)CC3CCCCO3)c12 (single isomer, unassigned; (+)) [Example 1, (+)-N-{4-methoxy-6-[(1H-pyrazol-1-yl)methyl]-1,2-benzoxazol-3-yl}-1-(oxan-2-yl)methanesulfonamide] | 88% | IC50 (KAT6A IC50 at 1 μM AcCoA): 117 nM |
| COc1cc(Cn2cccn2)cc2onc(NS(=O)(=O)CC3CCCC(F)C3)c12 (stereo not drawn) [Example 54] | 82% | – |
| COc1cc(Cn2cccn2)cc2onc(NS(=O)(=O)CC3CCCC4(CCC4)O3)c12 (stereo not drawn) [Example 120] | 35% | – |
| COc1cc(Cn2cccn2)cc2onc(NS(=O)(=O)C3CC(C)(C)C3)c12 [Example 84] | 62% | – |
| COc1cc(Cn2cccn2)cc2onc(NS(=O)(=O)C3CCOCC3C)c12 (stereo not drawn) [Example 96] | 58% | – |
| COc1cc(Cn2cccn2)cc2onc(NS(=O)(=O)C3CCN(C(C)=O)CC3)c12 [Example 94] | 76% | – |
| COc1cc(Cn2cccn2)cc2onc(NS(=O)(=O)CC(C)OCC3CCCC3)c12 (stereo not drawn) [Example 127] | – | IC50 (KAT6A IC50 at 1 μM AcCoA): 36 nM |
| COc1cc(Cn2cccn2)cc2onc(NS(=O)(=O)CCOCC3CCC3)c12 [Example 126] | – | IC50 (KAT6A IC50 at 1 μM AcCoA): 133 nM |
| COc1cc(Cn2cccn2)cc2onc(NS(=O)(=O)CCCC3CC3)c12 [Example 58] | 87% | – |
| COc1cc(Cn2cccn2)cc2onc(NS(=O)(=O)C3CCC(=O)CC3)c12 [Example 80] | 60% | – |
| COc1cc(Cn2cccn2)cc2onc(NS(=O)(=O)CCC3CCOC3)c12 (stereo not drawn) [Example 112] | 68% | – |
| COc1cc(Cn2cccn2)cc2onc(NS(=O)(=O)C3CCCCCC3)c12 [Example 59] | 48% | – |
| COc1cc(Cn2cccn2)cc2onc(NS(=O)(=O)NC3CCCCC3)c12 [Example 131] | – | IC50 (read-out: KAT6A IC50 at 1 μM AcCoA): 6 nM; Ki [1]: 3 nM |
| COc1cc(Cn2cccn2)cc2onc(NS(=O)(=O)[C@H]3CCC[C@H]3OC)c12 [Example 18] | 83% | Ki [1]: 71.9 nM |
| COc1cc(Cn2cccn2)cc2onc(NS(=O)(=O)CCC3CCCO3)c12 (stereo not drawn) [Example 102] | 70% | Ki (KAT6A Ki at 10 μM AcCoA): 116 nM |
| COc1cc(Cn2cccn2)cc2onc(NS(=O)(=O)CC34CCC(CC3)CC4)c12 [Example 24] | 93% | Ki (KAT6A Ki at 10 μM AcCoA): 19.5 nM |
| COc1cc(Cn2cccn2)cc2onc(NS(=O)(=O)CC3(C(F)F)CCC3)c12 [Example 76] | 90% | – |
| COc1cc(Cn2cccn2)cc2onc(NS(=O)(=O)C3CCC(OC)CC3)c12 (stereo not drawn) [Example 44] | 89% | – |
| COc1cc(Cn2cccn2)cc2onc(NS(=O)(=O)C[C@H]3C[C@@H](C)C3)c12 [Example 133] | – | IC50 (KAT6A IC50 at 1 μM AcCoA): 40 nM |
| COc1cc(Cn2cccn2)cc2onc(NS(=O)(=O)CCC3CCCCO3)c12 (stereo not drawn) [Example 108] | 67% | – |
| COc1cc(Cn2cccn2)cc2onc(NS(=O)(=O)CC3CC3(F)F)c12 (stereo not drawn) [Example 66] | 88% | – |
| COc1cc(Cn2cccn2)cc2onc(NS(=O)(=O)C3CCC3)c12 [Example 12] | 59% | Ki [1]: 199 nM |
| COCC1(S(=O)(=O)Nc2noc3cc(Cn4cccn4)cc(OC)c23)CC1 [Example 47] | 68% | – |
| COc1cc(Cn2cccn2)cc2onc(NS(=O)(=O)CC3(C(F)(F)F)CC3)c12 [Example 34] | 46% | – |
| COc1cc(Cn2cccn2)cc2onc(NS(=O)(=O)C3CC(C)CC(C)C3)c12 (stereo not drawn) [Example 62] | 97% | – |
| COc1cc(Cn2cccn2)cc2onc(NS(=O)(=O)CC3CCCOC3)c12 (stereo not drawn) [Example 4] | – | IC50 (KAT6A IC50 at 1 μM AcCoA): 349 nM |
| CCOC1(CS(=O)(=O)Nc2noc3cc(Cn4cccn4)cc(OC)c23)CCOCC1 [Example 93] | 59% | – |
| COc1cc(Cn2cccn2)cc2onc(NS(=O)(=O)CC3CCOCC3)c12 [Example 7, N-{4-methoxy-6-[(1H-pyrazol-1-yl)methyl]-1,2-benzoxazol-3-yl}-1-(oxan-4-yl)methanesulfonamide] | 51% | Ki (KAT6A Ki at 10 μM AcCoA): 177 nM |

| SMILES | inhibition at 1 µM | further results |
| --- | --- | --- |
| COc1cc(Cn2cccn2)cc2onc(NS(=O)(=O)CC3(OC)CCC3)c12 [Example 56] | 71% | – |
| COc1cc(Cn2cccn2)cc2onc(NS(=O)(=O)CCCC3CCOC3)c12 (stereo not drawn) [Example 106] | 48% | – |
| COc1cc(Cn2cccn2)cc2onc(NS(=O)(=O)CCC3(C)CC3)c12 [Example 53] | 97% | – |
| COc1cc(Cn2cccn2)cc2onc(NS(=O)(=O)CC(OC)C3CCCC3)c12 (stereo not drawn) [Example 70] | 80% | – |
| COc1cc(Cn2cccn2)cc2onc(NS(=O)(=O)CC3CCCCC3(F)F)c12 (stereo not drawn) [Example 41] | 91% | – |
| COc1cc(Cn2cccn2)cc2onc(NS(=O)(=O)[C@@H]3CCCN(C(=O)OCc4ccccc4)C3)c12 [Example 91] | 53% | – |
| COc1cc(Cn2cccn2)cc2onc(NS(=O)(=O)N(C)C3CCCCC3)c12 [Example 132] | – | IC50 (KAT6A IC50 at 1 μM AcCoA): 9 nM; Ki (KAT6A Ki at 10 μM AcCoA): 4 nM |
| COc1cc(Cn2cccn2)cc2onc(NS(=O)(=O)C3CCC(F)(F)CC3)c12 [Example 51] | 65% | – |
| COc1cc(Cn2cccn2)cc2onc(NS(=O)(=O)CCC3CCOCC3)c12 [Example 117] | 91% | – |
| COc1cc(Cn2cccn2)cc2onc(NS(=O)(=O)CC3(OC)CCCC3)c12 [Example 71] | 72% | – |
| COc1cc(Cn2cccn2)cc2onc(NS(=O)(=O)CC3CCCO3)c12 (stereo not drawn) [Example 6] | – | IC50 (KAT6A IC50 at 1 μM AcCoA): 371 nM |
| COc1cc(Cn2cccn2)cc2onc(NS(=O)(=O)CCN3CCCC3)c12 [Example 129] | 16% | – |
| COc1cc(Cn2cccn2)cc2onc(NS(=O)(=O)C3CCCN(C(C)=O)C3)c12 (stereo not drawn) [Example 97] | 83% | – |
| COc1cc(Cn2cccn2)cc2onc(NS(=O)(=O)C3CCC(C)CC3)c12 (stereo not drawn) [Example 82] | 61% | – |
| COc1cc(Cn2cccn2)cc2onc(NS(=O)(=O)C3CCC(C#N)C3)c12 (stereo not drawn) [Example 16] | 81% | – |
| COc1cc(Cn2cccn2)cc2onc(NS(=O)(=O)C3CCOC(C)C3)c12 (stereo not drawn) [Example 89] | 84% | Ki (KAT6A Ki at 10 μM AcCoA): 87.3 nM |
| COc1cc(Cn2cccn2)cc2onc(NS(=O)(=O)CC(OC)C3CCCCC3)c12 (stereo not drawn) [Example 46] | 103% | – |
| COc1cc(Cn2cccn2)cc2onc(NS(=O)(=O)CC3CCOC(C)C3)c12 (stereo not drawn) [Example 103] | 75% | – |
| COc1cc(Cn2cccn2)cc2onc(NS(=O)(=O)C3CCCC3)c12 [Example 20] | – | Ki [1]: 36.5 nM |
| COc1cc(Cn2cccn2)cc2onc(NS(=O)(=O)CCC3CCCCC3)c12 [Example 31] | 93% | Ki (KAT6A Ki at 10 μM AcCoA): 4.94 nM |
| COc1cc(Cn2cccn2)cc2onc(NS(=O)(=O)C3COC(C)(C)C3)c12 (stereo not drawn) [Example 90] | 83% | Ki (KAT6A Ki at 10 μM AcCoA): 66.2 nM and 58.1 nM |
| COc1cc(Cn2cccn2)cc2onc(NS(=O)(=O)CC3(C#N)CCCCC3)c12 [Example 40] | 58% | – |
| COc1cc(Cn2cccn2)cc2onc(NS(=O)(=O)CC3CCC(F)CC3)c12 (stereo not drawn) [Example 8] | 77% | – |
| COc1cc(Cn2cccn2)cc2onc(NS(=O)(=O)[C@H]3C[C@H]3c3ccccc3)c12 [Example 28] | – | Ki [1]: 14.2 nM |
| COc1cc(Cn2cccn2)cc2onc(NS(=O)(=O)CC3CCC4(CCC4)O3)c12 (stereo not drawn) [Example 121] | 75% | – |
| COc1cc(Cn2cccn2)cc2onc(NS(=O)(=O)CCCC3CCOCC3)c12 [Example 104] | 80% | – |
| COc1cc(Cn2cccn2)cc2onc(NS(=O)(=O)C3CC(CC#N)C3)c12 (stereo not drawn) [Example 14] | – | Ki (KAT6A Ki at 10 μM AcCoA): 160 nM |
